The target of assay [1] is T1, human testosterone 5α-reductase-1 (Homo sapiens, UniProt P18405).
T1 construct: expressed in transfected cells
T1 sequence (P18405 1-259): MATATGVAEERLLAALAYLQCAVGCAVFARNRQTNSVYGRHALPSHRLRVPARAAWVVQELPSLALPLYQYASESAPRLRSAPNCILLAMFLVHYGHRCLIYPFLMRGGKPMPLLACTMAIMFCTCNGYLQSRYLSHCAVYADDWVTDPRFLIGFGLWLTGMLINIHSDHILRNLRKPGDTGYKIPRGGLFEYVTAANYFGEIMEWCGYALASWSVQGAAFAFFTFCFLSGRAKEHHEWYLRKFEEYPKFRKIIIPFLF
In words: in vitro inhibition of cloned human testosterone 5α-reductase-1 (test method 4). The class given is biochemical. An excerpt: (4) The compounds of the formula (I) may be tested in vitro for human testosterone 5α-reductase-1 inhibitory activity using cloned human testosterone 5α-reductase-1 according to the procedure described in Proc. Natl. Acad. Sci. USA, 87, 3640 (1990).
(§1) The data were obtained using test method (4) set out on page 27 of the specification and test method (2) described on pages 24 to 26 of the specification, respectively.

Assay [2] deals with T2, human testosterone 5α-reductase-2 (Homo sapiens, UniProt P31213).
T2 construct: using tissue from hyperplastic human prostates; from tissue; host or cells: hyperplastic human prostate, 100,000G particulate preparation
T2 sequence (P31213 1-254): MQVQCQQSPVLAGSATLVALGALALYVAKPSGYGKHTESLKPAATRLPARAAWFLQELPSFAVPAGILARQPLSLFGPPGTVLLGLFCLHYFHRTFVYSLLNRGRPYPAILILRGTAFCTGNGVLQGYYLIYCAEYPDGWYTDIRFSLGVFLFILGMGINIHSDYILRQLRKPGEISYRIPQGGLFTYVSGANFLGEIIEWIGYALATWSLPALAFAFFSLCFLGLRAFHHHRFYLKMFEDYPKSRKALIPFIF
Kind of assay: in vitro inhibition of human testosterone 5α-reductase-2 from hyperplastic human prostate tissue (test method 2). Type of assay: biochemical. As to conditions: hyperplastic human prostate particulate, pH 5.2, 37° C., 30 minutes. On the procedure: (2) The compounds of the formula (I) may be tested for their potency in inhibiting human testosterone 5α-reductase-2 using tissue from hyperplastic human prostates. In determining inhibitory potency against human prostatic 5α-reductase-2 the following procedure was employed:
Frozen human prostate tissue was pulverised in liquid nitrogen using a steel mortar and pestle. The powdered tissue was homogenised in 4 volumes of Buffer A (20 mM sodium phosphate, pH 6.5, containing 0.32M sucrose, 1 mM dithiothreitol and 50 μM NADPH) with an Ultra-Turrax homogeniser (Janke and Kunkel GmBH & Co., Staufen i. BR., Germany). The homogenate was centrifuged at 500G for 5 minutes to remove large particles of tissue, and the supernatant was then centrifuged at 100,000G for 1 hour. The resulting pellet was dispersed in Buffer A (1 ml per g of prostate tissue originally used) with the Ultra-Turrax homogeniser. This particulate preparation was then filtered through 2 layers of cheesecloth and the filtrate was stored as 2ml samples at -70° C.
The following components, dissolved in Buffer B (25 mM citrate phosphate buffer, pH 5.2), were added to a test tube: 100 μl of [^3 H]-testosterone (1 μCi, 1 nmol; Du Pont, NEN Research Products, Stevenage, U.K.), 100 μl of NADPH regeneration system (5 mM NADPH, 50 mM glucose 6-phosphate, 5 units/ml glucose 6-phosphate dehydrogenase), a compound of the formula (I) dissolved in 5 μl of dimethyl sulphoxide, and Buffer B to give a final reaction volume of 1 ml. The mixture was warmed to 37° C. and the reaction started by addition of an aliquot of prostate particulate suspension. The reaction mixture was incubated at 37° C. for 30 minutes and was then quenched by addition, with vigorous mixing, of 2 ml of ethyl acetate containing 20 μg each of testosterone and 5α-dihydrotestosterone as carriers. The aqueous and organic layers were separated by centrifugation at 2000 G for 10 minutes. The organic layer was transferred to a second test tube and evaporated to dryness under nitrogen. The residue was dissolved in 50-80μl of absolute ethanol, spotted onto a silica gel 60 F254 TLC plate (E. Merck, Darmstadt, Germany) and developed in dichloromethane:acetone (185:15).
The radiochemical content in the bands of the substrate (testosterone) and the product (5α-dihydrotestosterone) were determined with a RITA Radio TLC Analyser (Raytest Instruments Ltd., Sheffield, U.K.). The percent of recovered radiolabel converted to 5α-dihydrotestosterone was calculated and used to determine enzyme activity. All incubations were conducted so that no more than 15% of substrate (testosterone) was converted to product.
The experimentally obtained data for a range of inhibitor concentrations was computer fitted to a sigmoidal dose-response curve and concentrations of compound giving 50% inhibition of 5α-reductase activity (IC50 's) were calculated using a SIGFIT program (De Lean, A., Munson, P. J. and Rodbard, D., American Journal of Physiology, 235, E97 (1978)).
as §1

As usually defined, the IC50 is the midpoint of a concentration-inhibition curve. Read a high IC50 as lower potency. As for `CCCCC1(c2ccc(CCC)cc2)Oc2ccc(CC(=O)c3cn(CCCC(=O)O)c4ccccc34)cc2O1` (stereo not drawn) [Example 1, 4-(3-[(2-n-Butyl-2-[4-n-propyl]phenyl-1,3-benzodioxolan-5-yl)methylcarbonyl]indol-1-yl)butanoic acid], the IC50 in assay [1] worked out at 15.5 nM; in assay [2], 6.9 nM.
With `CCCCCCC1(c2ccc(CCC)cc2)Oc2ccc(CC(=O)c3cn(CCCC(=O)O)c4ccccc34)cc2O1` (stereo not drawn) [Example 2], the values for the concentration for half-maximal inhibition (IC50) in assay [1] and in assay [2] were 24 nM and 16.7 nM, respectively.
The like results for `CCCc1ccc(C2(CCC)Oc3ccc(CC(=O)c4cn(CCCC(=O)O)c5ccccc45)cc3O2)cc1` (stereo not drawn) [Example 3] were, in that order, 14 nM and 13.3 nM.
`CCCCCC1(c2ccc(CCC)cc2)Oc2ccc(CC(=O)c3cn(CCCC(=O)O)c4ccccc34)cc2O1` (stereo not drawn) [Example 4]: the IC50 in assay [1] came out at 11 nM; in assay [2] it was 16.9 nM.
For the compound `CCCCC1(c2ccc(CC)cc2)Oc2ccc(CC(=O)c3cn(CCCC(=O)O)c4ccccc34)cc2O1` (stereo not drawn) [Example 5, 4-(3-[(2-n-butyl-2-[4-ethyl]phenyl-1,3-benzodioxolan-5-yl)methylcarbonyl]indol-1-yl)butanoic acid], the figures for the IC50 in assay [1] and in assay [2] were 11 nM and 4.5 nM, respectively.
As for `CCCCC1(c2ccc(CCC)cc2)Oc2ccc(CC(=O)c3cn(CCCC(=O)O)c4ccccc34)cc2O1` (stereo not drawn) [Example 6], the IC50 turned out to be 17.5 nM in assay [1] and 2.3 nM in assay [2].

These data come from patent US5696146A, “Indole derivatives as steroid 5α-reductase inhibitors” (Pfizer Inc., priority 1993, dated 1997).
